IC50 data for 24 molecules are collected here from patent US20250163002A1, “FUSED QUINONOXIME IMIDAZOLE, ONIUM DERIVATIVES THEREOF, PREPARATION AND USE THEREOF” (SHANGHAI JIAO TONG UNIVERSITY, priority 2022, published 2025).

The IC50 is the point on the concentration scale where inhibition reaches its midpoint. High values mean a need for much substance, low ones inhibition by little substance.

Format in all cases: cell-based
In one test the test system is MCF-7. Briefly: In vitro inhibition test for cancer cell proliferation (MTT), MCF-7. As to conditions: unit inferred.
In the next test the test system is HeLa. Briefly: In vitro inhibition test for cancer cell proliferation (MTT), HeLa. As to conditions: 24 h or 48 h after addition, unit inferred.
Another test relates to L929. Briefly: In vitro cell proliferation inhibition test (MTT), L929. As to conditions: unit inferred.
The next test relates to A549. Briefly: In vitro inhibition test for cancer cell proliferation (MTT), A549. To be noted: unit inferred.
Where [1] appears, read: Homo sapiens, MCF7, 24 h or 48 h after addition.
The mark [2] stands for this setting: Mus musculus, L929, 24 h or 48 h after addition.
The mark [3] stands for this setting: Homo sapiens, A549, 24 h or 48 h after addition.

Structures can show the parent of a compound that is named as a salt.

`C[n+]1cn(CC2OCCO2)c2c1/C(=N/O)c1ccccc1C2=O` [Compound 107, (E)-1-((1,3-dioxoheterocycle-2-yl)methyl)-4-(hydroxylimino)-3-methyl-9-oxo-4,9-dihydro-1H-naphthol[2,3-d]imidazole-3-iodide]: the concentration for half-maximal inhibition (IC50) was 9.85 µM in the test with MCF-7 (24 h or 48 h after addition), above 100 µM in the test on HeLa, above 100 µM in the test with L929 (24 h or 48 h after addition) and 0.6 µM in the test with A549 (24 h or 48 h after addition).

For `CCCCn1c[n+](C)c2c1C(=O)c1ccccc1/C2=N\O` [Compound 94, (E)-1-butyl-4-(hydroxylimino)-3-methyl-9-oxo-4,9-dihydro-1H-naphthol[2,3-d]imidazole-3-iodide], the IC50 amounted to 0.84 µM in the test on MCF-7 (setting [1]); 1.43 µM in the test with HeLa (Homo sapiens, HeLa); 39.2 µM with L929 (setting [2]); 0.67 µM in the test with A549 (setting [3]).

In the case of `Cn1c[n+](C)c2c1C(=O)c1cc3ccccc3cc1C2=NOCc1ccccc1` [Compound 149, (E) and (Z)-4-((benzyloxy)imino)-1,3-dimethyl-11-oxo-4, 11-dihydro-1H-anthracene[2,3-d]imidazole-3-iodide], the IC50 in the test on MCF-7 (24 h or 48 h after addition) was 75.3 µM; in the test on HeLa, 67.4 µM; with L929 (24 h or 48 h after addition), above 100 µM; with A549 (24 h or 48 h after addition) it was 0.33 µM.

In the case of `CC(C)CON=C1c2ccccc2C(=O)c2c1[n+](C)cn2C` [Compound 129, (E) and (Z)-4-(isobutoxyimino)-1,3-dimethyl-9-oxo-4,9-dihydro-1H-naphthol[2,3-d]imidazole-3-iodide], the IC50 in the test with MCF-7 (24 h or 48 h after addition) is 12.1 µM; in the test with HeLa, 8.7 µM; in the test on L929 (24 h or 48 h after addition), 26.4 µM; with A549 (24 h or 48 h after addition), 0.07 µM.

With `Cn1c[n+](C)c2c1C(=O)c1ccccc1C2=NOCc1ccc(Cl)cc1` [Compound 134, (E) and (Z)-4-(((4-chlorobenzyl)oxy)imino)-1,3-dimethyl-9-oxo-4,9-dihydro-1H-naphthol[2,3-d]imidazole-3-iodide], the IC50 with MCF-7 (24 h or 48 h after addition) was 25.6 µM; with HeLa, 17.5 µM; in the test with L929 (24 h or 48 h after addition), 4.9 µM; with A549 (24 h or 48 h after addition), 0.07 µM.

Take `C=CCON=C1c2ccccc2C(=O)c2c1[n+](C)cn2C` [Compound 132, (E) and (Z)-4-((allyloxy)imino)-1,3-dimethyl-9-oxo-4,9-dihydro-1H-naphthol[2,3-d]imidazole-3-iodide]: the IC50 was determined as 56.1 µM in the test with MCF-7 (24 h or 48 h after addition), 46.3 µM with HeLa, 2.4 µM with L929 (24 h or 48 h after addition) and 0.06 µM in the test on A549 (24 h or 48 h after addition).

As for `COc1ccc(CON=C2c3ccccc3C(=O)c3c2[n+](C)cn3C)cc1` [Compound 133, (E) and (Z)-4-(((4-methoxybenzyl)oxy)imino)-1,3-dimethyl-9-oxo-4,9-dihydro-1H-naphthol[2,3-d]imidazole-3-iodide], the IC50 with MCF-7 (24 h or 48 h after addition) worked out at 17.9 µM; with HeLa, 23.9 µM; in the test with L929 (24 h or 48 h after addition) it was 16 µM; in the test with A549 (24 h or 48 h after addition), 0.08 µM.

On to `C[n+]1cn(-c2ccc(F)cc2)c2c1/C(=N/O)c1ccccc1C2=O` [Compound 111, (E)-1-(4-fluorophenyl)-4-(hydroxylimino)-3-methyl-9-oxo-4,9-dihydro-1H-naphthol[2,3-d]imidazole-3-iodide], for which the IC50 in the test on MCF-7 (24 h or 48 h after addition) is 24.6 µM; in the test on HeLa, 19.7 µM; in the test on L929 (24 h or 48 h after addition), above 100 µM; in the test with A549 (24 h or 48 h after addition), 11.6 µM.

Turning to `C=CCON=C1c2cc3ccccc3cc2C(=O)c2c1[n+](C)cn2C` [Compound 150, (E) and (Z)-4-((allyloxy)imino)-1,3-dimethyl-11-oxo-4,11-dihydro-1H-anthracene[2,3-d]imidazole-3-iodide], the half-maximal inhibitory concentration (IC50) in the test on MCF-7 (24 h or 48 h after addition) is 45.9 µM; with HeLa, 34.4 µM; with L929 (24 h or 48 h after addition), 97.8 µM; in the test on A549 (24 h or 48 h after addition), 0.46 µM.

Take `Cn1c[n+](C)c2c1C(=O)c1ccccc1C2=NOc1ccccc1` [Compound 142, (E) and (Z)-4-((phenoxy)imino)-1,3-dimethyl-9-oxo-4,9-dihydro-1H-naphthol[2,3-d]imidazole-3-iodide]: the IC50 in the test with MCF-7 (24 h or 48 h after addition) amounted to 43.5 µM; in the test on HeLa, 34 µM; in the test with L929 (24 h or 48 h after addition), 61.3 µM; with A549 (24 h or 48 h after addition) it was 0.06 µM.

Consider `Cn1c[n+](C)c2c1C(=O)c1ccccc1C2=NOCc1ccccc1` [Compound 140, (E) and (Z)-4-((benzyloxy)imino)-1,3-dimethyl-9-oxo-4,9-dihydro-1H-naphthol[2,3-d]imidazole-3-dimethyl sulfate], for which the IC50 turned out to be 10.9 µM in the test on MCF-7 (24 h or 48 h after addition), 9.8 µM in the test with HeLa, 34.5 µM in the test on L929 (24 h or 48 h after addition) and 0.007 µM in the test on A549 (24 h or 48 h after addition).

For the molecule `C[n+]1cn(C(C)(C)C)c2c1/C(=N/O)c1ccccc1C2=O` [Compound 98, (E)-1-(tert-butyl)-4-(hydroxylimino)-3-methyl-9-oxo-4,9-dihydro-1H-naphthol[2,3-d]imidazole-3-iodide], the IC50 in the test on MCF-7 (24 h or 48 h after addition) came out at 1.81 µM; with HeLa, 2.18 µM; in the test on L929 (24 h or 48 h after addition), 38.9 µM; in the test on A549 (24 h or 48 h after addition) it was 0.59 µM.

On to `CCC(C)Cn1c[n+](C)c2c1C(=O)c1ccccc1/C2=N\O` (stereo not drawn) [Compound 97, (E)-4-(hydroxylimino)-3-methyl-1-(2-methylbutyl)-9-oxo-4,9-dihydro-1H-naphthol[2,3-d]imidazole-3-iodide], for which the IC50 with MCF-7 (24 h or 48 h after addition) amounted to 1.05 µM; in the test on HeLa it was 1.97 µM; in the test with L929 (24 h or 48 h after addition), 74 µM; in the test on A549 (24 h or 48 h after addition), 1.37 µM.

With `CCCCn1c[n+](CC)c2c1C(=O)c1ccccc1C2=NOC` [Compound 122, (E) and (Z)-1-butyl-3-ethyl-4-(methoxylimino)-9-oxo-4,9-dihydro-1H-naphthol[2,3-d]imidazole-3-iodide], the IC50 is 33 µM in the test with MCF-7 (24 h or 48 h after addition), 52 µM with HeLa, above 100 µM with L929 (24 h or 48 h after addition) and 1.8 µM with A549 (24 h or 48 h after addition).

Regarding `C[n+]1cn(-c2ccc(F)c(Br)c2)c2c1/C(=N/O)c1ccccc1C2=O` [Compound 117, (E)-1-(3-bromo-4-fluorophenyl)-4-(hydroxylimino)-3-methyl-9-oxo-4,9-dihydro-1H-naphthol[2,3-d]imidazole-3-iodide], the IC50 was 67.7 µM in the test with MCF-7 (24 h or 48 h after addition), 87.8 µM in the test with HeLa, above 100 µM in the test with L929 (24 h or 48 h after addition) and 5.2 µM in the test on A549 (24 h or 48 h after addition).

Take `C[n+]1cn(Cc2cccc(F)c2)c2c1/C(=N/O)c1ccccc1C2=O` [Compound 113, (E)-1-(3-fluorobenzyl)-4-(hydroxylimino)-3-methyl-9-oxo-4,9-dihydro-1H-naphthol[2,3-d]imidazole-3-iodide]: the IC50 with MCF-7 (24 h or 48 h after addition) came out at 10 µM; in the test with HeLa it was 7.1 µM; in the test on L929 (24 h or 48 h after addition), 73.4 µM; with A549 (24 h or 48 h after addition), 0.57 µM.

For `C[n+]1cn(-c2cccc(F)c2)c2c1/C(=N/O)c1ccccc1C2=O` [Compound 110, (E)-1-(3-fluorophenyl)-4-(hydroxylimino)-3-methyl-9-oxo-4,9-dihydro-1H-naphthol[2,3-d]imidazole-3-iodide], the IC50 in the test on MCF-7 (24 h or 48 h after addition) is 42.3 µM; in the test on HeLa, 49 µM; in the test on L929 (24 h or 48 h after addition), above 100 µM; with A549 (24 h or 48 h after addition) it was 17.2 µM.

On to `CCn1c[n+](C)c2c1C(=O)c1ccccc1/C2=N\O` [Compound 92, (E)-1-ethyl-4-(hydroxylimino)-3-methyl-9-oxo-4,9-dihydro-1H-naphthol[2,3-d]imidazole-3-iodide], for which the IC50 in the test on MCF-7 (24 h or 48 h after addition) was determined as 0.94 µM; with HeLa, 1.63 µM; with L929 (24 h or 48 h after addition) it was 13.5 µM; in the test on A549 (24 h or 48 h after addition), 0.54 µM.

On to `Cn1c[n+](C)c2c1C(=O)c1ccccc1C2=NOCc1ccccc1` [Compound 139, (E) and (Z)-4-((benzyloxy)imino)-1,3-dimethyl-9-oxo-4,9-dihydro-1H-naphthol[2,3-d]imidazole-3-p-toluenesulfonamide], for which the half-maximal inhibitory concentration (IC50) in the test on MCF-7 (24 h or 48 h after addition) stood at 8.6 µM; in the test on HeLa it was 6.8 µM; in the test on L929 (24 h or 48 h after addition) it was 19.9 µM; in the test on A549 (24 h or 48 h after addition), 0.005 µM.

Consider `COCCOCCOCCO/N=C1\c2ccccc2C(=O)c2c1[n+](C)cn2C` [Compound 147, (E) and (Z)-4-((2-(2-(2-methoxyethoxy)ethoxy)ethoxy)imino)-1,3-dimethyl-9-oxo-4,9-dihydro-1H-naphthol[2,3-d]imidazole-3-iodide], for which the IC50 amounted to 26.8 µM in the test on MCF-7 (setting [1]); 13.2 µM in the test with HeLa (Homo sapiens, HeLa); 15.7 µM in the test with L929 (setting [2]); 0.02 µM in the test on A549 (setting [3]).

Regarding `Cn1c[n+](C)c2c1C(=O)c1ccccc1C2=NOCc1ccc([N+](=O)[O-])cc1` [Compound 141, (E) and (Z)-1,3-dimethyl-4-(((4-nitrobenzyl)oxy)imino)-9-oxo-4,9-dihydro-1H-naphthol[2,3-d]imidazole-3-iodide], the IC50 in the test with MCF-7 (24 h or 48 h after addition) came to 45.6 µM; in the test on HeLa, 23.9 µM; in the test with L929 (24 h or 48 h after addition) it was 23.4 µM; in the test with A549 (24 h or 48 h after addition) it was 0.05 µM.

Consider `Cn1c[n+](C)c2c1C(=O)c1ccccc1C2=NOCc1ccc(F)cc1` [Compound 136, (E) and (Z)-4-(((4-fluorobenzyl)oxy)imino)-1,3-dimethyl-9-oxo-4,9-dihydro-1H-naphthol[2,3-d]imidazole-3-iodide], for which the IC50 in the test with MCF-7 (24 h or 48 h after addition) was found to be 29.8 µM; in the test on HeLa it was 23.9 µM; in the test on L929 (24 h or 48 h after addition), 4.4 µM; in the test on A549 (24 h or 48 h after addition) it was 0.06 µM.

For the molecule `CCCCn1c[n+](C)c2c1C(=O)c1ccccc1C2=NOCC` [Compound 120, (E) and (Z)-1-butyl-4-(ethoxylimino)-3-methyl-9-oxo-4,9-dihydro-1H-naphthol[2,3-d]imidazole-3-iodide], the IC50 in the test on MCF-7 (24 h or 48 h after addition) was 13 µM; with HeLa, 26 µM; with L929 (24 h or 48 h after addition) it was above 100 µM; in the test on A549 (24 h or 48 h after addition) it was 0.69 µM.

As for `Cn1c[n+](C)c2c1C(=O)c1ccccc1C2=NOCc1ccc(C(F)(F)F)cc1` [Compound 135, (E) and (Z)-1,3-dimethyl-9-oxo-4-(((4-(trifluoromethyl)benzyl)oxy)imino)-4,9-dihydro-1H-naphthol[2,3-d]imidazole-3-iodide], the IC50 in the test with MCF-7 (24 h or 48 h after addition) was 34.9 µM; with HeLa it was 45.4 µM; in the test with L929 (24 h or 48 h after addition), 4.03 µM; in the test on A549 (24 h or 48 h after addition) it was 0.16 µM.
